From PubChem BioAssay AID330 (DTP/NCI, 2004)
Values joined by “and” are separate entries in the source; they are usually repeats but may differ in a detail not shown here. Equal entries are not always repeated. Toxic doses and inconclusive results are not listed.

Test system: P388 leukemia ip, CD2F1 mice, survival T/C
Assay: NCI In Vivo Anticancer Drug Screen. Data for tumor model P388 Leukemia (intraperitoneal) in CD2F1 (CDF1) mice
Conditions: endpoint: median survival time, higher = longer survival
Procedure, shortened: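 Mice carrying the transplanted tumor received test compound or vehicle. Survival was recorded in each group, and the value is the treated-group measurement divided by that of the vehicle-treated control group.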

[1] = dose: 12.5 mg/kg/injection, schedule: Q01DX009 (ip), vehicle: Klucel (hydroxypropylcellulose) (HPC)
[2] = dose: 25.0 mg/kg/injection, schedule: Q01DX009 (ip), vehicle: Klucel (hydroxypropylcellulose) (HPC)
[3] = dose: 50.0 mg/kg/injection, schedule: Q01DX009 (ip), vehicle: Klucel (hydroxypropylcellulose) (HPC)
[4] = dose: 100.0 mg/kg/injection, schedule: Q01DX009 (ip), vehicle: Klucel (hydroxypropylcellulose) (HPC)
[5] = dose: 60.0 mg/kg/injection, schedule: Q01DX005 (ip), vehicle: Klucel (hydroxypropylcellulose) (HPC)
[6] = dose: 120.0 mg/kg/injection, schedule: Q01DX005 (ip), vehicle: Klucel (hydroxypropylcellulose) (HPC)
[7] = dose: 240.0 mg/kg/injection, schedule: Q01DX005 (ip), vehicle: Klucel (hydroxypropylcellulose) (HPC)
[8] = dose: 200.0 mg/kg/injection, schedule: Q01DX009 (ip), vehicle: Klucel (hydroxypropylcellulose) (HPC)
[9] = dose: 12.5 mg/kg/injection, schedule: Q01DX009 (ip), vehicle: saline with Tween-80
[10] = dose: 25.0 mg/kg/injection, schedule: Q01DX009 (ip), vehicle: saline with Tween-80
[11] = dose: 50.0 mg/kg/injection, schedule: Q01DX009 (ip), vehicle: saline with Tween-80
[12] = dose: 50.0 mg/kg/injection, schedule: Q01DX005 (ip), vehicle: saline with Tween-80
[13] = dose: 100.0 mg/kg/injection, schedule: Q01DX005 (ip), vehicle: saline with Tween-80
[14] = dose: 200.0 mg/kg/injection, schedule: Q01DX005 (ip), vehicle: saline with Tween-80
[15] = dose: 100.0 mg/kg/injection, schedule: Q01DX009 (ip), vehicle: saline with Tween-80
[16] = dose: 200.0 mg/kg/injection, schedule: Q01DX009 (ip), vehicle: saline with Tween-80
[17] = dose: 400.0 mg/kg/injection, schedule: Q01DX009 (ip), vehicle: saline with Tween-80
[18] = dose: 100.0 mg/kg/injection, schedule: Q04DX003 (ip), vehicle: saline with Tween-80
[19] = dose: 200.0 mg/kg/injection, schedule: Q04DX003 (ip), vehicle: saline with Tween-80
[20] = dose: 400.0 mg/kg/injection, schedule: Q04DX003 (ip), vehicle: saline with Tween-80
[21] = dose: 12.5 mg/kg/injection, schedule: Q04DX003 (ip), vehicle: saline with Tween-80
[22] = dose: 50.0 mg/kg/injection, schedule: Q01DX005 (ip), vehicle: Klucel (hydroxypropylcellulose) (HPC)
[23] = dose: 100.0 mg/kg/injection, schedule: Q01DX005 (ip), vehicle: Klucel (hydroxypropylcellulose) (HPC)
[24] = dose: 200.0 mg/kg/injection, schedule: Q01DX005 (ip), vehicle: Klucel (hydroxypropylcellulose) (HPC)

For `O=C(O)CSc1cc(Cl)ccc1Cl`, the T/C (dose: 12.5 mg/kg/injection, schedule: Q04DX003 (ip), vehicle: Klucel (hydroxypropylcellulose) (HPC)) was 102 % of control, the T/C (dose: 25.0 mg/kg/injection, schedule: Q04DX003 (ip), vehicle: Klucel (hydroxypropylcellulose) (HPC)) was 100 % of control and the T/C (dose: 50.0 mg/kg/injection, schedule: Q04DX003 (ip), vehicle: Klucel (hydroxypropylcellulose) (HPC)) was 102 % of control. The T/C (dose: 100.0 mg/kg/injection, schedule: Q04DX003 (ip), vehicle: Klucel (hydroxypropylcellulose) (HPC)) was 103 % of control.

For `CC#CC#C/C(=C/C=CC(=O)OC)SC`, the T/C [1] was 110 % of control, the T/C [2] was 106 % of control and the T/C [3] was 101 % of control. The T/C [4] was 104 % of control.

With `[O-]c1cc2c3c(c1)c1cc4c(cc1c[n+]3C=C2)OCO4` the T/C (dose: 25.0 mg/kg/injection, schedule: Q01DX009 (ip), vehicle: other) was 123 % of control.

For `O=C1C2=C(Nc3cc([N+](=O)[O-])ccc3N2)OC1c1ccc(Cl)cc1Cl` (stereo unspecified), the T/C (dose: 30.0 mg/kg/injection, schedule: Q01DX005 (ip), vehicle: Klucel (hydroxypropylcellulose) (HPC)) was 101 % of control, the T/C [5] was 89 % of control and 94 % of control and the T/C [6] was 99 % of control. For the same compound, the T/C [7] was 111 % of control.

For `CCCCCCCCCCN1CCS(=O)(=O)CC1`, the T/C [3] was 101 % of control, the T/C [4] was 100 % of control and the T/C [8] was 98 % of control.

In the case of `N#Cc1nnn(Cc2ccccc2)c1N`, the T/C (dose: 6.25 mg/kg/injection, schedule: Q01DX009 (ip), vehicle: saline with Tween-80) is reported as 110 % of control, the T/C [9] is reported as 110 % of control and the T/C [10] is reported as 108 % of control. For the same compound, the T/C [11] was 98 % of control and 86 % of control.

`CCCCOP(O)(=S)OCCCC.[Yb]` was tested, and the T/C (dose: 100.0 mg/kg/injection, schedule: Q04DX002 (ip), vehicle: saline with Tween-80) was 96 % of control, the T/C (dose: 200.0 mg/kg/injection, schedule: Q04DX002 (ip), vehicle: saline with Tween-80) was 101 % of control and the T/C (dose: 400.0 mg/kg/injection, schedule: Q04DX002 (ip), vehicle: saline with Tween-80) was 99 % of control.

For `COc1cc(OCc2ccc(OCc3ccccc3)cc2)cc(OC)c1OC`, the T/C [12] was 93 % of control, the T/C [13] was 105 % of control and the T/C [14] was 95 % of control.

With `c1ccc2c3ccc(c2c1)CCc1ccc(c2ccccc12)CC3` the T/C (dose: 100.0 mg/kg/injection, schedule: Q04DX003 (ip), vehicle: other) was 96 % of control and the T/C (dose: 200.0 mg/kg/injection, schedule: Q04DX003 (ip), vehicle: other) was 90 % of control.

With `CS(=O)(=O)c1cc(C(F)(F)F)cc([N+](=O)[O-])c1Cl` the T/C [10] was 109 % of control and the T/C [11] was 100 % of control.

For `CCCCC1C2C(S(=O)(=O)c3ccccc3)=NOC2C=CN1C(C)=O` (stereo unspecified), the T/C (dose: 15.0 mg/kg/injection, schedule: Q01DX005 (ip), vehicle: saline with Tween-80) was 105 % of control and 109 % of control and the T/C (dose: 30.0 mg/kg/injection, schedule: Q01DX005 (ip), vehicle: saline with Tween-80) was 102 % of control and 93 % of control and 98 % of control.

With `O=C(NCc1ccccc1)C1C(=O)C(=O)N(Cc2ccccc2)C1=O` (stereo unspecified) the T/C [3] was 105 % of control, the T/C [4] was 100 % of control and the T/C [8] was 107 % of control.

`COc1ccc(OC)c(NC=O)c1` was tested, and the T/C [9] was 98 % of control and 86 % of control, the T/C [10] was 98 % of control and 93 % of control and 97 % of control and the T/C [11] was 104 % of control and 97 % of control. For the same compound, the T/C [15] was 99 % of control and 100 % of control and 97 % of control.

`Cc1ccc(C)c(Nc2ccccc2[N+](=O)[O-])c1` was tested, and the T/C [11] was 103 % of control, the T/C [15] was 108 % of control and the T/C [16] was 100 % of control. The T/C [17] was 112 % of control.

With `O=C1OC(CO)CC1(O)CO` (stereo unspecified) the T/C (dose: 60.0 mg/kg/injection, schedule: Q01DX005 (ip), vehicle: saline) was 99 % of control, the T/C (dose: 120.0 mg/kg/injection, schedule: Q01DX005 (ip), vehicle: saline) was 105 % of control and the T/C (dose: 240.0 mg/kg/injection, schedule: Q01DX005 (ip), vehicle: saline) was 104 % of control.

For `Cc1ccc2oc3c(=O)c4ccccc4c(=O)c=3oc2c1`, the T/C [18] was 90 % of control, the T/C [19] was 89 % of control and the T/C [20] was 90 % of control.

`Cc1ncc([N+](=O)[O-])n1CCSC#N` was tested, and the T/C (dose: 6.25 mg/kg/injection, schedule: Q04DX003 (ip), vehicle: saline with Tween-80) was 105 % of control and the T/C [21] was 96 % of control.

With `CCOC(=O)C1(Br)CCCCC1` the T/C [11] was 109 % of control, the T/C [15] was 111 % of control and the T/C [16] was 103 % of control.

In the case of `O=C(OCC(Cl)(Cl)Cl)N1[C@H]2C3=C(CCC3)[C@@H]([C@H]3O[C@H]32)N1C(=O)OCC(Cl)(Cl)Cl`, the T/C [22] is reported as 97 % of control, the T/C [23] is reported as 97 % of control and the T/C [24] is reported as 97 % of control.

In the case of `NCC1CCC(C(=O)O)CC1` (stereo unspecified), the T/C [12] is reported as 94 % of control, the T/C [13] is reported as 92 % of control and the T/C [15] is reported as 99 % of control. The T/C [14] was 100 % of control, the T/C [16] was 101 % of control and the T/C (dose: 400.0 mg/kg/injection, schedule: Q01DX005 (ip), vehicle: saline with Tween-80) was 103 % of control. For the same compound, the T/C [17] was 100 % of control and the T/C (dose: 800.0 mg/kg/injection, schedule: Q01DX005 (ip), vehicle: saline with Tween-80) was 89 % of control.

In the case of `O=C1c2cc(Br)ccc2OC2CCON12` (stereo unspecified), the T/C [3] is reported as 108 % of control, the T/C [4] is reported as 107 % of control and the T/C [8] is reported as 94 % of control.

`O=C(Nc1ccc2[nH]c3ccccc3c2c1)c1ccccc1Cl` was tested, and the T/C [22] was 93 % of control, the T/C [23] was 95 % of control and the T/C [24] was 90 % of control.

For `O=[N+]([O-])c1ccc2c(N=Nc3ccc4ccccc4c3O)c(O)cc(S(=O)(=O)O)c2c1`, the T/C [15] was 90 % of control, the T/C [18] was 95 % of control and the T/C [19] was 100 % of control. The T/C [20] was 100 % of control.

For `COc1cc2c3c(c1O)-c1c(cccc1OC)CC3N(C)CC2` (stereo unspecified), the T/C [21] was 90 % of control and the T/C (dose: 25.0 mg/kg/injection, schedule: Q04DX003 (ip), vehicle: saline with Tween-80) was 100 % of control and 88 % of control.

In the case of `COc1cc(C(c2cc3c(cc2O)OCO3)N2CCN(C(c3ccc(O)c(OC)c3)c3cc4c(cc3O)OCO4)CC2)ccc1O` (stereo unspecified), the T/C (dose: 60.0 mg/kg/injection, schedule: Q01DX005 (ip), vehicle: saline with Tween-80) is reported as 89 % of control, the T/C (dose: 120.0 mg/kg/injection, schedule: Q01DX005 (ip), vehicle: saline with Tween-80) is reported as 92 % of control and the T/C (dose: 240.0 mg/kg/injection, schedule: Q01DX005 (ip), vehicle: saline with Tween-80) is reported as 95 % of control.

`ClCC[N+]12CC[N+](CCCl)(CC1)C2.[Cl][Pt]([Cl])([Cl])[Cl]` was tested, and the T/C (dose: 6.25 mg/kg/injection, schedule: Q01DX009 (ip), vehicle: distilled water + Tween-80) was 100 % of control and the T/C (dose: 25.0 mg/kg/injection, schedule: Q01DX009 (ip), vehicle: distilled water + Tween-80) was 169 % of control.

In the case of `Cc1ccc2c(c1)-c1nc(N)ncc1C(O)O2` (stereo unspecified), the T/C (dose: 100.0 mg/kg/injection, schedule: Q04DX003 (ip), vehicle: saline) is reported as 110 % of control, the T/C (dose: 200.0 mg/kg/injection, schedule: Q04DX003 (ip), vehicle: saline) is reported as 96 % of control and the T/C (dose: 400.0 mg/kg/injection, schedule: Q04DX003 (ip), vehicle: saline) is reported as 100 % of control.

For `COc1ccc(N2CSC(=S)N(c3ccc(OC)cc3)C2)cc1`, the T/C [17] was 86 % of control.

In the case of `O=c1/c(=C/c2ccccc2)sc2nc(-c3ccccc3)nn12`, the T/C [1] is reported as 87 % of control, the T/C [2] is reported as 88 % of control and the T/C [3] is reported as 89 % of control and 91 % of control. The T/C [4] was 107 % of control and the T/C [8] was 107 % of control.

`O=C(NN1C(=O)CS(=O)(=O)C1c1ccc(F)cc1)c1ccncc1` (stereo unspecified) was tested, and the T/C [12] was 98 % of control, the T/C [13] was 97 % of control and the T/C [14] was 88 % of control.

For `Cc1cc(O)c(C)c(C(=O)O)c1`, the T/C [11] was 99 % of control, the T/C [15] was 99 % of control and the T/C [16] was 92 % of control.

For `Nc1c(Br)cc(Br)c2c1C(=O)c1ccccc1-2`, the T/C [12] was 98 % of control, the T/C [13] was 91 % of control and the T/C [14] was 96 % of control.

`CCCC1(N2CCCC2)C(=O)NC(=O)N(CC)C1=O` (stereo unspecified) was tested, and the T/C [5] was 108 % of control, the T/C [6] was 93 % of control and the T/C [7] was 101 % of control.

In the case of `CCOC(=O)/C(C#N)=C/c1ccc(-c2cc(C(F)(F)F)cc(C(F)(F)F)c2)o1`, the T/C [12] is reported as 92 % of control, the T/C [13] is reported as 90 % of control and the T/C [14] is reported as 88 % of control.
